This passage reports IC50 results from BindingDB's records for doi:10.7270/Q2319T8T (The Scripps Research Institute Molecular Screening Center, 2007).

Structures can show the parent of a compound that is named as a salt.

In one assay the target is Steroidogenic factor 1 (Homo sapiens, UniProt Q13285). As to the kind of experiment: SF-1 inhibitor potency, dose response, cell-based, CHO-K1, Gal4-SF-1 LBD, luciferase luminescence (AID 600).
Chain of Steroidogenic factor 1 (Q13285 whole entry, the tested form may be a part): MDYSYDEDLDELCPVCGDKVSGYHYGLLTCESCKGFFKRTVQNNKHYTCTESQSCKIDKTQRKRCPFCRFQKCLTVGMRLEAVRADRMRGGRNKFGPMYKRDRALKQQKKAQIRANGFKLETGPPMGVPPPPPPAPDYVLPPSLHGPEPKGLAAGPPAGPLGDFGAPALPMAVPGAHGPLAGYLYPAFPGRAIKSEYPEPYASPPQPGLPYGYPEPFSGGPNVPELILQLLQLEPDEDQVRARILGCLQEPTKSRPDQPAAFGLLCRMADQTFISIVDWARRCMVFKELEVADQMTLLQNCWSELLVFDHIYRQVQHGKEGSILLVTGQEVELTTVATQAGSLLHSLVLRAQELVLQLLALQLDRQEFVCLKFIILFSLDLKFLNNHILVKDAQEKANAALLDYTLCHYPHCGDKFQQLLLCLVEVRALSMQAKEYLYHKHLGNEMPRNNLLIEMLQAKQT
Settings: not given
Take `COc1cccc2c1C(=O)c1c(O)c3c(c(O)c1C2=O)C[C@@](O)(C(C)=O)C[C@@H]3O[C@H]1C[C@H](N)[C@H](O)[C@H](C)O1` [(7S,9S)-9-acetyl-7-[(2R,4S,5S,6S)-4-amino-5-hydroxy-6-methyloxan-2-yl]oxy-6,9,11-trihydroxy-4-methoxy-8,10-dihydro-7H-tetracene-5,12-dione;hydrochloride]: the IC50 was found to be 0.54 µM.

For `C[C@H]1CCCC=CC2C[C@H](O)CC2[C@H](O)C=CC(=O)O1` (stereo partly drawn) [(7S,12R,15S)-12,15-dihydroxy-7-methyl-8-oxabicyclo[11.3.0]hexadeca-2,10-dien-9-one], the IC50 worked out at 5.61 µM.

As for `N#CC1C(=N)C(C#N)(C#N)[C@H](c2ccncc2)[C@H]2CN(C(=O)OCc3ccccc3)CC=C12` (stereo partly drawn) [(8S,8aR)-6-amino-5,7,7-tricyano-8-(4-pyridyl)-1,3,8,8a-tetrahydroisoquinoline-2-carboxylic acid benzyl ester], the IC50 worked out at 14.7 µM.

On to `CCn1c2ccccc2c2cc(Nc3cc(C)nc4ncnn34)ccc21` [(9-ethylcarbazol-3-yl)-(5-methyl-[1,2,4]triazolo[1,5-a]pyrimidin-7-yl)amine], for which the IC50 was 6.19 µM.

In the case of `Cc1ccc(C(=O)CC=Nc2ccccn2)cc1` [(E)-1-(4-methylphenyl)-3-(2-pyridinylamino)-2-propen-1-one], the IC50 was > 11 µM.

For `CN(C)c1ccc(N=CCC(=O)c2ccccc2)cc1` [(E)-3-[4-(dimethylamino)anilino]-1-phenyl-2-propen-1-one], the half-inhibitory concentration (IC50) is > 11 µM.

Turning to `O=C(CC=Nc1ccccn1)c1ccc(Cl)cc1` [(Z)-1-(4-chlorophenyl)-3-(2-pyridinylamino)-2-propen-1-one], half-maximal inhibition (IC50) was put at 6.09 µM.

For the compound `O=C(CC=Nc1ccc2c(c1)OCO2)c1ccccn1` [(Z)-3-(1,3-benzodioxol-5-ylamino)-1-(2-pyridinyl)-2-propen-1-one], the IC50 came out at 13.6 µM.

The compound `CCOC(=O)c1[n-]c2ccccc2c1[N+]#N` [(Z)-(3-diazonio-2-indolylidene)-ethoxymethanolate] showed an IC50 of 11.3 µM.

`CC[C@]1(O)CC2C[N@](CCc3c([nH]c4ccccc34)[C@@](C(=O)OC)(c3cc4c(cc3OC)N(C)[C@H]3[C@@](O)(C(=O)OC)[C@H](OC(C)=O)[C@]5(CC)C=CCN6CC[C@]43[C@@H]65)C2)C1` [(vinblastine) methyl 12-ethyl-4-[17-ethyl-17-hydroxy-13-methyloxycarbonyl-(13S,15R,17S)-1,11-diazatetracyclo[13.3.1.04,12.05,10]nonadeca-4(12),5,7,9-tetraen-13-yl]-10-hydroxy-5-methoxy-8-methyl-11-methylcarbonyloxy-(10S,11R,12R)-8,16-diazapentac sulfuric acid] registered an IC50 of 0.986 µM.

Turning to `COc1cccc2c1C(=O)c1c(O)c3c(c(O)c1C2=O)C[C@@](O)(C(=O)CO)C[C@@H]3O[C@H]1C[C@H](N)[C@H](O)[C@H](C)O1` [MLS000028393], the IC50 worked out at 0.964 µM.

`CCOc1cc(C(=O)CSc2nnc(CNc3ccc(Cl)cc3)o2)ccc1NC(=O)CC` [MLS000032332] yielded an IC50 of 8.36 µM.

The compound `Nc1ccc(-c2nc3c(Cl)cc(N)cc3[nH]2)cc1` [MLS000034140] came in with an IC50 of 5.09 µM.

As for `Cc1cnc(NC(=O)CN2CCN(c3ccccn3)CC2)s1` [MLS000035284], the IC50 was 8.52 µM.

In the case of `Cc1cccc(NC(=O)CSc2nnc(-c3cc(C)n(-c4ccccc4)c3C)o2)c1C` [MLS000036049], the IC50 was > 1.22 µM.

The compound `COc1ccc(CCNc2ncnc3c2oc2ccccc23)cc1OC` [MLS000041708] returned an IC50 of 9.38 µM.

For `COc1ccc(C=Nn2nnc3ccccc32)cc1` [MLS000043825], the IC50 was > 3.67 µM.

In the case of `CS(=O)(=O)c1nc(-c2ccccc2)cc(C(F)(F)F)n1` [MLS000044644], it took 5.09 µM to reach half-maximal inhibition (IC50).

`CS(=O)(=O)c1nc(-c2cccs2)cc(C(F)(F)F)n1` [MLS000044645] showed an IC50 of 5.46 µM.

With `CCOc1ccccc1-n1c(SCC(=O)Nc2ccc(CC)cc2)nc2nnc(C)c-2c1N` [MLS000047091], the IC50 amounted to 5.99 µM.

`CCn1c2ccccc2c2cc(NC(=O)CSc3nnnn3-c3ccccc3)ccc21` [MLS000051054]: the IC50 amounted to 6.92 µM.

Compound `COc1cc2nc(CN3CC=C(c4ccccc4)CC3)nc(O)c2cc1OC` [MLS000053305] showed an IC50 of 1.3 µM.

Take `CCOC(=O)c1c(C)[nH]c(C(=O)C(C)OC(=O)c2cccc(OCc3c(C)noc3C)c2)c1C` (configuration not stated) [MLS000054923]: the midpoint of inhibition, the IC50, lay at 8.24 µM.

With `O=C(NC1=NCCS1)C1COc2ccccc2O1` (configuration not stated) [MLS000056062], the IC50 stood at 5.24 µM.

The compound `CC(=O)Nc1ccccc1OCC(=O)c1cc(C)n(Cc2cccs2)c1C` [MLS000056239] displayed an IC50 of 2.78 µM.

The compound `COc1ccc(CCNc2nnc(Sc3nnnn3-c3ccccc3)s2)cc1OC` [MLS000056567] gave an IC50 of 5.15 µM.

In the case of `CCSc1nnc(NC(=O)c2ccccn2)s1` [MLS000056851], the IC50 was > 3.67 µM.

In turn, `O=S(=O)(Nc1cccc2ncccc12)c1cccs1` [MLS000057468] yielded an IC50 of 5.27 µM.

In the case of `CC(=O)Nc1ccc(SCC(=O)c2cc(C)n(Cc3cccs3)c2C)cc1` [MLS000058142], the IC50 is 4 µM.

The compound `Cc1cc(C)n(-c2ccc3cccc(NS(C)(=O)=O)c3n2)n1` [MLS000062301] registered an IC50 of 3.42 µM.

Take `c1cncc(-c2nnc(SCc3nc4ccccc4[nH]3)o2)c1` [MLS000062679]: the IC50 was > 99 µM.

Regarding `O=C(Nc1ccc(N2CCOCC2)cc1)c1cnsn1` [MLS000063695], the IC50 is 4.09 µM.

Consider `CC1CCc2nc(NC(=O)c3ccco3)sc2C1` (configuration not stated) [MLS000063711], for which the IC50 was > 11 µM.

`COc1cc(C2Nc3cccc4cccc(c34)N2)cc(OC)c1OC(C)=O` [MLS000078084]: the midpoint of inhibition, the IC50, lay at 7.72 µM.

The assay is the same for the next values; noted with them: inactive by the depositor's call.
`O=S(=O)(C/C(=C/CO)S(=O)(=O)c1ccccc1)c1ccccc1` [(Z)-3,4-bis(benzenesulfonyl)but-2-en-1-ol] had an IC50 of 18 µM.

In turn, `CC(=O)c1sc(NC(=O)C2(F)C(F)(F)C(F)(F)C(F)(F)C(F)(F)C2(F)F)nc1C` [MLS000040071] yielded an IC50 of 15.6 µM.

`COc1ccc(CCNc2nc(C)nc3c2oc2ccccc23)cc1OC` [MLS000040997] had an IC50 of 10.1 µM.

On to `CCOc1ccc(-c2cc(CCCC(=O)Nc3cc(OC)ccc3OC)no2)cc1` [MLS000045930], for which it took 12.7 µM to reach half-maximal inhibition (IC50).

`Cc1ccc(NC(=O)Cc2nn(C)c(=O)c3ccccc23)cc1F` [MLS000047015] returned an IC50 of 11.4 µM.

For the compound `Cn1nc(CC(=O)Nc2ccc3c(c2)OCCO3)c2ccccc2c1=O` [MLS000047020], the IC50 amounted to 12.8 µM.

The compound `COc1ccccc1OCC(=O)c1[nH]c(C)c(C(C)=O)c1C` [MLS000053479] yielded an IC50 of 32.9 µM.

Compound `Cc1cc(NC(=O)c2ccc3c(c2)OCCO3)no1` [MLS000064124] yielded an IC50 of 13.1 µM.

As for `N#C/C(=C\c1ccc(O)c(O)c1)C(=O)NCCCc1ccccc1` [MLS000069704], the IC50 was determined as 13.5 µM.

As to `CCN(C(=O)c1ccc(C(C)(C)C)cc1)c1nnc(Cn2nnc3ccccc32)s1` [MLS000072751], the half-maximal inhibitory concentration (IC50) came out at 10.4 µM.

In the case of `Cc1ccnc(SCC(=O)Nc2sc3c(c2C#N)CCCC3)n1` [MLS000077260], the IC50 was found to be 13.4 µM.

The compound `c1ccc(CN2CCN(c3ncnc4c3[nH]c3ccccc34)CC2)cc1` [MLS000078384] gave an IC50 of 15.6 µM.

The compound `Fc1ccc2[nH]c3c(N4CCSCC4)ncnc3c2c1` [MLS000078401] displayed an IC50 of 11.8 µM.

One may read the IC50 as the concentration that gives 50% inhibition. Higher therefore signals a need for much substance.
